The text below walks through data of patent publication US9701792B2, “Composite compositions and methods of preparing and using same” (THE REGENTS OF THE UNIVERSITY OF COLORADO, A BODY CORPORATE, priority 2014, dated 2017).

The series in a line: Volumetric shrinkage during photo-CuAAC reaction. Type of series: physicochemical. Conditions: monomer (2) and 4-pentyl-1-ol in chloroform; azide/alkyne to CuCl2/PMDETA/I819 50:50:1:1. As for the experimental part:
The volumetric shrinkage behavior during the photo-CuAAC reaction was measured using monomer (2) in FIGS. 3 and 4-pentyl-1-ol in chloroform (molar ratio of azide/alkyne to CuCl2/PMDETA/I819 as 50:50:1:1, the same as the bulk model system). […] In certain embodiments, the total shrinkage is lower in the CuAAC polymerization because the formed triazole concentration is less than the required methacrylate concentration. With appropriate fillers, the composite shrinkage may be reduced further.

For `CC(C)(c1ccc(OCC(O)CN=[N+]=[N-])cc1)c1ccc(OCC(O)CN=[N+]=[N-])cc1` (stereo not shown) [monomer (2), bisphenol A di(3-azido-2-hydroxypropan-1-ol) ether], the “molar volume change per triazole formed” value came out at 22.2 mL/mol.
